In US8309581B2, “Benzimidazole derivatives” (Hoffmann-La Roche Inc., priority 2009, dated 2012):

Each molecule was assayed against T1, FXR ligand binding domain (Homo sapiens, UniProt Q96RI1) (assay: Radioligand Binding Assay (scintillation proximity radioligand displacement)). Settings: GST-FXR LBD fusion protein on SPA beads, test compound 6×10^−9 M to 2.5×10^−5 M.
T1 construct: made in house; host or cells: E. coli BL21 (pLysS)
T1 sequence (Q96RI1 193-472 isoform Q96RI1-2): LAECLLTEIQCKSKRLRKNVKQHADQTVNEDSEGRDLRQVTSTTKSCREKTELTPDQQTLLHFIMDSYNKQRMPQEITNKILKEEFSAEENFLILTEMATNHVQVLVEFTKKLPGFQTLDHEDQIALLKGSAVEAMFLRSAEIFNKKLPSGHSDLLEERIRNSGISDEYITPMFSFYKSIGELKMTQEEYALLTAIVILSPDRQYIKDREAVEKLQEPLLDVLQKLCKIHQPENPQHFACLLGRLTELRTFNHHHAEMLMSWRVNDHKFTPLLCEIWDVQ
Experimental: The following tests were carried out in order to determine the activity of the compounds of formula (I). Background information on the binding assay can be found in: Nichols J S et al. “Development of a scintillation proximity assay for peroxisome proliferator-activated receptor gamma ligand binding domain”, (1998) Anal. Biochem. 257: 112-119.
Bacterial and mammalian expression vectors were constructed to produce glutathione-s-transferase (GST) and Gal4 DNA binding domain (GAL) proteins fused to the ligand binding domain (LBD) of human FXR (aa 193-473). To accomplish this, the portions of the sequences encoding the FXR LBD were amplified by polymerase chain reaction (PCR) from a full-length clone by PCR and then subcloned into the plasmid vectors. The final clone was verified by DNA sequence analysis.
The induction, expression, and subsequent purification of GST-LBD fusion protein was performed in E. coli strain BL21 (pLysS) cells by standard methods (Current Protocols in Molecular Biology, Wiley Press, ed. Ausubel et al.).
Radioligand Binding Assay
Binding of test substances to the FXR ligand binding domain was assessed in a radioligand displacement assay. The assay was performed in a buffer consisting of 50 mM Hepes, pH 7.4, 10 mM NaCl, 5 mM MgCl2, 0.01% CHAPS. For each reaction well in a 96-well plate, 40 nM of GST-FXR LBD fusion protein was bound to […] glutathione ytrium silicate SPA beads (PharmaciaAmersham) in a final volume of […] by shaking. A radioligand (e.g., 20 nM of 2,N-dicyclohexyl-2-[2-(2,4 dimethoxy-phenyl)-benzoimidazol-1-yl]-acetamide) and test compounds were added, and scintillation proximity counting was performed. All binding assays were performed in 96-well plates and the amount of bound ligand was measured on a Packard TopCount using OptiPlates (Packard). Dose response curves were performed within a range of test compound concentrations from 6×10^−9 M to 2.5×10^−5 M and IC50 values were calculated.

Question: With `O=C(O)CCc1ccc(Cn2c(-c3ccc(Cl)cc3OCC3CC3)nc3cc(F)c(F)cc32)cc1` [Example 60, 3-{4-[2-(4-Chloro-2-cyclopropylmethoxy-phenyl)-5,6-difluoro-benzoimidazol-1-ylmethyl]-phenyl}-propionic acid] as the molecule, how does the IC50 read?
Answer: Its IC50 is 1300 nM.

Question: Which IC50 does the source give for `O=C(O)c1cccc(Cn2c(-c3ccc(Cl)cc3OCC3CCCC3)nc3cc(F)c(F)cc32)c1` [Example 61, 3-[2-(4-Chloro-2-cyclopentylmethoxy-phenyl)-5,6-difluoro-benzoimidazol-1-ylmethyl]-benzoic acid] here?
Answer: Its IC50 is 500 nM.

Question: Which IC50 does the source give for `O=C(O)c1ccc(Cn2c(-c3ccc(Cl)cc3OCC3CCCC3)nc3cc(F)c(F)cc32)cc1` [Example 62, 4-[2-(4-Chloro-2-cyclopentylmethoxy-phenyl)-5,6-difluoro-benzoimidazol-1-ylmethyl]-benzoic acid] here?
Answer: The IC50 was 400 nM.

Question: Which IC50 does the source give for `O=C(O)Cc1ccc(Cn2c(-c3ccc(Cl)cc3OCC3CCCC3)nc3cc(F)c(F)cc32)cc1` [Example 63, {4-[2-(4-Chloro-2-cyclopentylmethoxy-phenyl)-5,6-difluoro-benzoimidazol-1-ylmethyl]-phenyl}-acetic acid] here?
Answer: Its IC50 is 700 nM.

Question: For `O=C(O)COc1ccc(Cn2c(-c3ccc(Cl)cc3OCC3CCCC3)nc3cc(F)c(F)cc32)cc1` [Example 64, {4-[2-(4-Chloro-2-cyclopentylmethoxy-phenyl)-5,6-difluoro-benzoimidazol-1-ylmethyl]-phenoxy}-acetic acid], which IC50 is on record?
Answer: Its IC50 is 200 nM.

Question: How did the IC50 turn out when `O=C(O)CCCCCn1c(-c2ccc(Cl)cc2OCC2CCCC2)nc2cc(F)c(F)cc21` [Example 65, 6-[2-(4-Chloro-2-cyclopentylmethoxy-phenyl)-5,6-difluoro-benzoimidazol-1-yl]-hexanoic acid] was run?
Answer: The IC50 was 3700 nM.

Question: Which IC50 does the source give for `O=C(O)C1CCC(Cn2c(-c3ccc(Cl)cc3OCC3CCCC3)nc3cc(F)c(F)cc32)CC1` (centres unmarked) [Example 66, 4-[2-(4-Chloro-2-cyclopentylmethoxy-phenyl)-5,6-difluoro-benzoimidazol-1-ylmethyl]-cyclohexane carboxylic acid] here?
Answer: Its IC50 is 1800 nM.

Question: How did the IC50 turn out when `Fc1cc2nc(-c3ccc(Cl)cc3OCC3CCCC3)n(Cc3cccc(-c4nnn[nH]4)c3)c2cc1F` [Example 67, 2-(4-Chloro-2-cyclopentylmethoxy-phenyl)-5,6-difluoro-1-[3-(1H-tetrazol-5-yl)-benzyl]-1H-benzoimidazole] was run?
Answer: Its IC50 is 90 nM.

Question: Which IC50 does the source give for `Fc1cc2nc(-c3ccc(Cl)cc3OCC3CCCC3)n(Cc3ccc(-c4nnn[nH]4)cc3)c2cc1F` [Example 68, 2-(4-Chloro-2-cyclopentylmethoxy-phenyl)-5,6-difluoro-1-[4-(1H-tetrazol-5-yl)-benzyl]-1H-benzoimidazole] here?
Answer: Its IC50 is 40 nM.

Question: How did the IC50 turn out when `Fc1cc2nc(-c3ccc(Cl)cc3OCC3CCCC3)n(Cc3ccc(-c4nnn[nH]4)c(F)c3)c2cc1F` [Example 69, 2-(4-Chloro-2-cyclopentylmethoxy-phenyl)-5,6-difluoro-1-[3-fluoro-4-(1H-tetrazol-5-yl)-benzyl]-1H-benzoimidazole] was run?
Answer: The IC50 was 80 nM.

Question: How did the IC50 turn out when `Fc1cc2nc(-c3ccc(Cl)cc3OCC3CCCC3)n(Cc3ccc(-c4nnn[nH]4)cc3F)c2cc1F` [Example 70, 2-(4-Chloro-2-cyclopentylmethoxy-phenyl)-5,6-difluoro-1-[2-fluoro-4-(1H-tetrazol-5-yl)-benzyl]-1H-benzoimidazole] was run?
Answer: The IC50 was 10 nM.

Question: With `COc1cc(Cl)ccc1-c1nc2cc(F)c(F)cc2n1Cc1ccc(-c2nnn[nH]2)cc1F` [Example 71, 2-(4-Chloro-2-methoxy-phenyl)-5,6-difluoro-1-[2-fluoro-4-(1H-tetrazol-5-yl)-benzyl]-1H-benzoimidazole] as the molecule, how does the IC50 read?
Answer: Its IC50 is 1100 nM.

Question: `Fc1cc2nc(-c3ccc(Cl)cc3C#Cc3ccc(-c4nnn[nH]4)cc3)n(CC3CCCCC3)c2cc1F` [Example 72, 2-{4-Chloro-2-[4-(1H-tetrazol-5-yl)-phenylethynyl]-phenyl}-1-cyclohexylmethyl-5,6-difluoro-1H-benzoimidazole] was tested. Which IC50 did it give?
Answer: Its IC50 is 3600 nM.

Question: How did the IC50 turn out when `Fc1cc2nc(-c3ccc(Cl)cc3CCc3ccc(-c4nnn[nH]4)cc3)n(CC3CCCCC3)c2cc1F` [Example 73, 2-(4-Chloro-2-{2-[4-(1H-tetrazol-5-yl)-phenyl]-ethyl}-phenyl)-1-cyclohexylmethyl-5,6-difluoro-1H-benzoimidazole] was run?
Answer: The IC50 was 10 nM.

Question: With `Clc1ccc(-c2nc3ccccc3n2CC2CCCCC2)c(CCc2ccc(-c3nnn[nH]3)cc2)c1` [Example 74, 2-(4-Chloro-2-{2-[4-(1H-tetrazol-5-yl)-phenyl]-ethyl}-phenyl)-1-cyclohexylmethyl-1H-benzoimidazole] as the molecule, how does the IC50 read?
Answer: The IC50 was 30 nM.

Question: `O=C(O)c1ccc(CCc2cc(Cl)ccc2-c2nc3ccccc3n2CC2CCCCC2)cc1` [Example 75, 4-{2-[5-Chloro-2-(1-cyclohexylmethyl-1H-benzoimidazol-2-yl)-phenyl]-ethyl}-benzoic acid] was tested. Which IC50 did it give?
Answer: Its IC50 is 30 nM.

Question: `Fc1cc2nc(-c3ccccc3CCc3ccc(-c4nnn[nH]4)cc3)n(CC3CCCCC3)c2cc1F` [Example 76, 1-Cyclohexylmethyl-5,6-difluoro-2-(2-{2-[4-(1H-tetrazol-5-yl)-phenyl]-ethyl}-phenyl)-1H-benzoimidazole] was tested. Which IC50 did it give?
Answer: The IC50 was 100 nM.

Question: How did the IC50 turn out when `O=C(O)c1ccc(CCc2ccccc2-c2nc3cc(F)c(F)cc3n2CC2CCCCC2)cc1` [Example 77, 4-{2-[2-(1-Cyclohexylmethyl-5,6-difluoro-1H-benzoimidazol-2-yl)-phenyl]-ethyl}-benzoic acid] was run?
Answer: The IC50 was 30 nM.

Question: With `O=C(O)c1ccc(CCc2ccccc2-c2nc3ccccc3n2CC2CCCCC2)cc1` [Example 78, 4-{2-[2-(1-Cyclohexylmethyl-1H-benzoimidazol-2-yl)-phenyl]-ethyl}-benzoic acid] as the molecule, how does the IC50 read?
Answer: Its IC50 is 90 nM.

Question: How did the IC50 turn out when `O=C(O)COc1ccc(CCc2ccccc2-c2nc3ccccc3n2CC2CCCCC2)cc1` [Example 79, (4-{2-[2-(1-Cyclohexylmethyl-1H-benzoimidazol-2-yl)-phenyl]-ethyl}-phenoxy)-acetic acid] was run?
Answer: The IC50 was 80 nM.

Question: Which IC50 does the source give for `c1ccc(-c2nc3ccccc3n2CC2CCCCC2)c(CCc2ccc(-c3nnn[nH]3)cc2)c1` [Example 80, 1-Cyclohexylmethyl-2-(2-{2-[4-(1H-tetrazol-5-yl)-phenyl]-ethyl}-phenyl)-1H-benzoimidazole] here?
Answer: Its IC50 is 30 nM.

Question: `FC1(F)CCC(Cn2c(-c3ccccc3CCc3ccc(-c4nnn[nH]4)cc3)nc3ccccc32)CC1` [Example 81, 1-(4,4-Difluoro-cyclohexylmethyl)-2-(2-{2-[4-(1H-tetrazol-5-yl)-phenyl]-ethyl}-phenyl)-1H-benzoimidazole] was tested. Which IC50 did it give?
Answer: The IC50 was 40 nM.

Question: `CC1CCC(Cn2c(-c3ccccc3CCc3ccc(-c4nnn[nH]4)cc3)nc3ccccc32)CC1` (centres unmarked) [Example 82, 1-(4-Methyl-cyclohexylmethyl)-2-(2-{2-[4-(1H-tetrazol-5-yl)-phenyl]-ethyl}-phenyl)-1H-benzoimidazole] was tested. Which IC50 did it give?
Answer: Its IC50 is 10 nM.

Question: `c1ccc(-c2nc3ccccc3n2CCC2CCCCC2)c(CCc2ccc(-c3nnn[nH]3)cc2)c1` [Example 83, 1-(2-Cyclohexyl-ethyl)-2-(2-{2-[4-(1H-tetrazol-5-yl)-phenyl]-ethyl}-phenyl)-1H-benzoimidazole] was tested. Which IC50 did it give?
Answer: Its IC50 is 10 nM.

Question: How did the IC50 turn out when `O=C(Nc1cc(Cl)ccc1-c1nc2cc(F)c(F)cc2n1CC1CCCCC1)c1ccc(-c2nnn[nH]2)cc1F` [Example 84, N-[5-Chloro-2-(1-cyclohexylmethyl-5,6-difluoro-1H-benzoimidazol-2-yl)-phenyl]-2-fluoro-4-(1H-tetrazol-5-yl)-benzamide] was run?
Answer: The IC50 was 0.2 nM.

Question: Which IC50 does the source give for `O=C(Nc1cc(Cl)ccc1-c1nc2cc(F)c(F)cc2n1CC1CCCCC1)c1ccc(-c2nnn[nH]2)c(F)c1` [Example 85, N-[5-Chloro-2-(1-cyclohexylmethyl-5,6-difluoro-1H-benzoimidazol-2-yl)-phenyl]-3-fluoro-4-(1H-tetrazol-5-yl)-benzamide] here?
Answer: Its IC50 is 0.6 nM.

Question: Which IC50 does the source give for `O=C(Nc1ccc(-c2nnn[nH]2)cc1F)c1ccccc1-c1nc2cc(F)c(F)cc2n1CC1CCCCC1` [Example 86, 2-(1-Cyclohexylmethyl-5,6-difluoro-1H-benzoimidazol-2-yl)-N-[2-fluoro-4-(1H-tetrazol-5-yl)-phenyl]-benzamide] here?
Answer: Its IC50 is 3 nM.

Question: With `Fc1cc2nc(-c3ccc(Cl)cc3OCC3CCCCC3)n(Cc3ccc(-c4nnn[nH]4)cc3F)c2cc1F` [Example 87, 2-(4-Chloro-2-cyclohexylmethoxy-phenyl)-5,6-difluoro-1-[2-fluoro-4-(1H-tetrazol-5-yl)-benzyl]-1H-benzoimidazole] as the molecule, how does the IC50 read?
Answer: Its IC50 is 20 nM.

Question: `CCC(CC)COc1cc(Cl)ccc1-c1nc2cc(F)c(F)cc2n1Cc1ccc(-c2nnn[nH]2)cc1F` [Example 88, 2-[4-Chloro-2-(2-ethyl-butoxy)-phenyl]-5,6-difluoro-1-[2-fluoro-4-(1H-tetrazol-5-yl)-benzyl]-1H-benzoimidazole] was tested. Which IC50 did it give?
Answer: Its IC50 is 10 nM.
